According to US7601685B2, “Growth factor modified protein matrices for tissue engineering” (Eidgenossische Technische Hochschule Zurich, priority 1998, dated 2009):

Legend:
[1] = test system: sheep drill defect; test: Sheep bone drill defect healing; type: in vivo; conditions: healing time 8 weeks
Protocol: To form the fibrin gel, the dilute precursors were mixed together by injecting the fibrinogen into the tube containing the thrombin. In case of the sheep drill defect (as described below) this mixture was then injected immediately into a drill defect created in sheep cancellous bone, where a fibrin gel formed within 1-5 minutes. In the first series of animal experiments, the efficacy of a fusion protein containing PTH1-34 as the bioactive factor ([…], SEQ ID NO:38) in healing cortical bone was tested in a small animal model. The sequence, YKNR, makes the linkage plasmin degradable (“TG-pl-PTH1-34). The TG-pl-PTH1-34 was made by chemical synthesis. […] The purity of the TG-pl-PTH1-34 was determined to be 95%.
TG-pl-PTH1-34 was tested as well in a long bone defect model to test the effect of this hormone on healing bone. In the sheep drill defect model, 8 mm cylindrically drill defects that were approximately 15 mm deep were placed in both the proximal and distal region of the femur and humerus bones. Since the defect was placed in the epiphysis of the long bones, the defect was surrounded by trabecular bone with a thin layer of cortical bone at the rim of the defect. These defects were then filled with an in situ polymerizing fibrin (about 750 μL) that contained various doses of TG-pl-PTH1-34. or TGPTH1-34. Animals were allowed to heal for eight weeks and then were sacrificed. The defect was analyzed with μCT and histology.
For this series of experiments, three types of compositions were tested. First, TG-pl-PTH1-34 was tested over a large concentration range. […] Thus, TGPTH1-34 could only be liberated by degradation of the fibrin matrix itself. TGPTH1-34 was produced and purified similar to TG-pl-PTH1-34. Purity was determined to be 95%. TGPTH1-34 was tested at several concentrations that were similar to the concentrations of TG-pl-PTH1-34 to compare efficacy. Finally, matrices were made in the presence of granular material, with either TGPTH1-34 or TG-pl-PTH1-34. The granular material was a standard tricalcium phosphate/hydroxyapatite mixture which was embedded in the matrix during gelation. The effect of adding these granules on the efficacy of PTH1-34 was explored. As a control, unmodified fibrin was tested.
The fibrin gel for all experiments was made as described in Example 7. The sheep bone defects were prepared as described in Example 7. The defects were filled with 750 μL of fibrin matrix alone (control) or with TG-pl-PDGFAB, TG-pl-IGF1 or TG-pl-BMP2. The sheep were allowed to heal for eight weeks and were then sacrificed. The explanted defect area was examined with μCT to evaluate the degree of new bone formation.

[2] = test system: chronic leg ulcers of the venous stasis origins; test: Chronic wound healing on skin in human patients; type: in vivo
Protocol: TG-pl-PDGF AB as described in Example 7 was incorporated into fibrin gels at 33 μg/mL gel and applied topically to patients with chronic leg ulcers of the venous stasis origins (at the Dermatology Klinik of the University Hospital Zürich.)
The fibrin gels were made from Baxter TISSUCOL® kits (Baxter AG, CH 8604 Volketswil) by diluting the fibrinogen component with Citrate-Glycine buffer (pH 7.3) and diluting the thrombin component with 40 mM Calcium chloride-glycine buffer (pH 7.0). The final concentration of fibrinogen in the applied fibrin gel was about 12.5 mg fibrinogen/mL gel. The thrombin concentration was varied to improve handling of the gels. The final concentration of thrombin in the applied fibrin gel was about 4 to 50 U/mL. TG-pl-PDGF AB was added to the diluted fibrinogen component at 66 μg/mL for a total of 33 μg/mL gel concentration. The diluted fibrinogen and thrombin components were packed in separate sterile syringes at the same volume and deep frozen at −20° C. until use.
The gels were applied via a dual syringe system as provided in the TISSUCOL® kit from Baxter. Briefly, each syringe contained either diluted fibrinogen or diluted thrombin. The two syringes were connected to an applicator set and joined by a tip with a blunt cannula. To form a gel, both components were pushed out of the syringes simultaneously, making a 1:1 mixture fibrin gel directly on the ulcer area. Ulcers were covered with a thin sheath of gel, which was allowed to dry for 2 minutes before standard dressing and compression bandaging was applied.

[3] = test system: critical size rat cranial defect; test: Rat critical size cranial defect healing; type: in vivo; conditions: for Healing (% defect filled with bone): Time 63 Days
[4] = test system: chick DRGs; test: Neurite extension of DRGs in fibrin matrices with immobilized β-NGF fusion proteins; type: cell-based
Excerpt: FIG. 3 is a graph of the effect of immobilized β-NGF fusion proteins on DRG neurite extension within fibrin matrices. Mean values and standard error of the mean are shown. ▪ denotes native NGF. ♦ denotes TG-P-NGF. ● denotes TG-Pi-NGF. * denotes p<0.0001 versus unmodified fibrin with NGF in the culture medium.
To determine the ability of covalently immobilized β-NGF fusion protein to be delivered in a controlled manner, β-NGF fusion proteins were incorporated into fibrin matrices during polymerization, and the ability of these matrices to enhance neurite extension in vitro was assayed using chick DRGs. […] A dose response effect for TG-P-NGF fusion protein was observed, with an optimal dose attained when 1-5 μg/mL of β-NGF fusion protein was present in the polymerization mixture. […] Despite the lower activity of the β-NGF fusion proteins in the PC12 cell activity assay, when the plasmin degradable β-NGF fusion protein was covalently coupled to fibrin, it promoted greater levels of neurite extension than the same dose of native NGF in the culture medium.

[5] = test system: day 8 chick embryonic dorsal root ganglia; test: Dorsal root ganglia neurite extension in fibrin gels with peptide/heparin-bound growth factor; type: cell-based; conditions: DRG
Excerpt: FIG. 2 is a graph of the effect of matrix bound bFGF on DRG neurite extension at 48 hr. Mean values and standard deviation of the mean are shown. (* denotes p<0.05 compared with unmodified fibrin.)
In order to evaluate this approach to release of heparin-binding growth factors from fibrin cell in-growth matrices that also comprise a covalently linked bi-domain peptide, one domain of which is a factor XIIIa substrate and one domain of which is a heparin-binding domain based on antithrombin III, dorsal root ganglia were cultured three-dimensionally within fibrin gels under a variety of conditions, as shown in the below.
Cross-linking Protocol for Use of Heparin-Binding Peptides: • 1) Dialyze fibrinogen (8 mg/ml) versus 4 L of Tris buffered saline (33 mM Tris), pH 7.4 for 24 hours. • 2) Sterile filter fibrinogen using a 0.2 μm syringe filter. • 3) Make the following peptide solutions:
• 4) Make thrombin solution: 100 units in 5 ml TBS. • 5) Add 1.4 ml of fibrinogen to each peptide solution. • 6) Make gels: Add 20 μl of TBS+50 mM CaCl2, 40 μl of thrombin solution (20 units/ml), and 340 μl of peptide solution+fibrinogen. (above solutions make 6 gels). • 7) Incubate at 37° C. for 1 hr. • 8) Wash 5 times in 24 hours. Use 1 ml of TBS the first 4 times and neuronal media the last time. • 9) Dissect day 8 chick embryonic dorsal root ganglia. • 10) Place one ganglia in each gel and place at 37° C. for 1 hr. • 11) Add 1 ml of neuronal media to each gel. • 12) Change media after 24 hours.

[6] = target: fibrin gels (Homo sapiens, UniProt P02671+P02675+P02679); conditions: cross-linked during polymerization; gels degraded with plasmin; n=10
fibrin gels, sequence (P02671 20-644 isoform P02671-2 limits assumed): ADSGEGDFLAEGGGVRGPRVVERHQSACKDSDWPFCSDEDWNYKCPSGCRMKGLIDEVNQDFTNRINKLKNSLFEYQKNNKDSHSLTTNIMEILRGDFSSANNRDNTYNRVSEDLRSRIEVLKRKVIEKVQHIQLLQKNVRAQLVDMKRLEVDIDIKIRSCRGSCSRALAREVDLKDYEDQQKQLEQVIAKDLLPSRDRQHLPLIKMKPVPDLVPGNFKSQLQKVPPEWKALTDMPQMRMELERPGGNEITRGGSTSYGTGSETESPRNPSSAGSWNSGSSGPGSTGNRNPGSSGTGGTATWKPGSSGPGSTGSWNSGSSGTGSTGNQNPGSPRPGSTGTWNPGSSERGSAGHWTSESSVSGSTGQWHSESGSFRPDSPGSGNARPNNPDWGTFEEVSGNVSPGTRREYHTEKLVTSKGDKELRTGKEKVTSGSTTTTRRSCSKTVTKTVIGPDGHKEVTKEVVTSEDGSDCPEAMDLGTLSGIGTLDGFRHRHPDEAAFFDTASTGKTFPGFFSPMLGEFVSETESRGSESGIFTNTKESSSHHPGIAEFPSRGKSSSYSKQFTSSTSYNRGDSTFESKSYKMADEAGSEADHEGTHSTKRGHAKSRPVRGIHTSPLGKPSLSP
fibrin gels, sequence (P02675 45-491 limits assumed): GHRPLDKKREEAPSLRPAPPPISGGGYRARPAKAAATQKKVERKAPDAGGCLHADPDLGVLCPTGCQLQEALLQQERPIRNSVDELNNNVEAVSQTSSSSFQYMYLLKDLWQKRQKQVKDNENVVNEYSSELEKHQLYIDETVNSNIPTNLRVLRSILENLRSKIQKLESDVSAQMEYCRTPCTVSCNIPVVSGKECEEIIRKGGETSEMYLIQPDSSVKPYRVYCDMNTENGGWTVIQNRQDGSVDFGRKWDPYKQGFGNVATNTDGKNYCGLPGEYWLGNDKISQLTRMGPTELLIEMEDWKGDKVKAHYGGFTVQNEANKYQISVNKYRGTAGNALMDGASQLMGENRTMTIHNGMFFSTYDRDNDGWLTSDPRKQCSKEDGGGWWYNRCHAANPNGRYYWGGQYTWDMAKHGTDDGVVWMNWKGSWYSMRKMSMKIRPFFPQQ
fibrin gels, sequence (P02679 27-437 isoform P02679-2 limits assumed): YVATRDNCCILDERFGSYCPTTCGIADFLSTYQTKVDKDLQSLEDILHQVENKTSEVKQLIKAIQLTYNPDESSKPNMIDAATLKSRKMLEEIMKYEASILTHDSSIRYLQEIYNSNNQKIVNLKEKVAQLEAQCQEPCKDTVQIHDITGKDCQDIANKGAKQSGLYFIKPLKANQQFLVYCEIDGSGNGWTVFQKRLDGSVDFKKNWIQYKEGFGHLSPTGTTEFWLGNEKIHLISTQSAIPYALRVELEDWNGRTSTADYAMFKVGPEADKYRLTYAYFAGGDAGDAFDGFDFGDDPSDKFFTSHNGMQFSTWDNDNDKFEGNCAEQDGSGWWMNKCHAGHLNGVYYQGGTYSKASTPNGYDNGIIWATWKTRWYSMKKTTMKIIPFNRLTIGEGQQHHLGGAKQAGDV
Protocol: Size exclusion chromatography was used to determine the amount of peptide cross-linked to fibrin gels using the previously developed incorporation method. A bi-domain peptide containing the heparin-binding domain from antithrombin III and a fluorescent label was incorporated into fibrin gels during polymerization. The free peptide was washed from the gels, and the fibrin network was degraded with plasmin. The degradation products were analyzed by high performance liquid chromatography (size exclusion chromatography) to determine the amount of peptide (by fluorescence) present per mole of fibrinogen (by UV absorbance).

[7] = Dose 400 μg/mL in fibrin matrix
[8] = Dose 1000 μg/mL in fibrin matrix
[9] = fusion protein covalently immobilized in fibrin matrix

Q: Which results are given for “NQEQVSPLSVSEIQLMHNLGKHLN SMERVEWLRKKLQDVHNF (NQEQVSPLSVSEIQLMHNLGKHLNSMERVEWLRKKLQDVHNF; Modified parathyroid hormone from Homo sapiens) [TGPTH1-34]”?
A: Healing (% defect filled with bone) [1, 7]: 40%; Healing (% defect filled with bone) [1, 8]: 65%

Q: What does the source list for “TG-pl-PDGFAB: PDGF AB heterodimer with 21 amino acid TG-pl-hook on both N termini (SEQ ID NO:40 and 41)”?
A: Healing (% defect filled with bone) ([1]; Dose 60 μg/mL in fibrin matrix): 39.5%; healing response ([2]; 33 μg/mL fibrin gel, topical, all three patients): enhanced healing response; time to complete healing of wound ([2]; 33 μg/mL fibrin gel, topical, one patient, wound about 2 cm^2): ≤ 4 weeks; time to complete healing of wound ([2]; 33 μg/mL fibrin gel, topical, third patient, deep wound down to the periost (1 cm^2)): 15 weeks; decrease in wound bed depth as well as surface area ([2]; 33 μg/mL fibrin gel, topical, two large wounds on one patient (up to 17 cm^2), after 8 weeks): 30-50%; healing versus standard treatment alone ([2]; fibrin gel treatment, doctors' assessment): strong enhancement of healing

Q: How did the “Healing (% defect filled with bone)” value ([1]; Dose 67 μg/mL in fibrin matrix) turn out when “TG-pl-IGF1: IGF1 fusion protein with TG-pl-hook (SEQ ID NO:42)” was run?
A: 41.5%

Q: Which results are given for “NQEQVSPLYKNRSVSEIQLMHNLGKHLNSMERVEWLRKKLQDVHNF (Modified parathyroid hormone from Homo sapiens) [TG-pl-PTH1-34]”?
A: level of healing ([3]; 3 week timepoint): very similar to that observed with a fibrin matrix alone; Healing (% defect filled with bone) ([3]; Dose 10 μg/ml in fibrin matrix): 43%; Healing (% defect filled with bone) ([3]; Dose 200 μg/ml in fibrin matrix): 50%; Healing (% defect filled with bone) ([3]; Dose 500 μg/ml in fibrin matrix): 62%; increase of healing response ([3]; high dose, 7 weeks, versus fibrin alone): 65%; Healing (% defect filled with bone) ([1]; Dose 50 μg/mL in fibrin matrix): 31.3%; Healing (% defect filled with bone) ([1]; Dose 100 μg/mL in fibrin matrix): 59.7%; Healing (% defect filled with bone) [1, 7]: 73%; Healing (% defect filled with bone) [1, 8]: 77%

Q: With “TG-P-NGF: β-NGF fusion protein with factor XIIIa substrate NQEQVSPL and functional plasmin substrate LIK/MKP (SEQ ID NO:24)” as the substance, how does the “optimal dose of β-NGF fusion protein in the polymerization mixture for neurite extension” value ([4]; dose response in fibrin matrices) read?
A: 1 to 5 µg/mL

Q: And the “enhancement of neurite extension over unmodified fibrin with 10 ng/mL of native NGF in medium” value [4, 9]?
A: up to 50%

Q: What about the “enhancement of neurite extension versus unmodified fibrin with no NGF present in the culture medium” value [4, 9] of the same substance?
A: over 350%

Q: Which “effect on neurite extension” value ([5]; 1.0 μg/ml bound VEGF) does the source give for VEGF here?
A: did not increase neurite extension

Q: With dLNQEQVSPK(βA)FAKLAARLYRKA as the substance, how does the “incorporation of peptide into fibrin” value [6] read?
A: 8.7±0.2 moles of peptide per mole of fibrinogen

Q: What does the source list for “bFGF: basic fibroblast growth factor, heparin-binding growth factor”?
A: effect on neurite extension ([5]; 1 μg/ml and 5 μg/ml of bound bFGF (peptide + heparin in fibrin), dose dependent, 48 hr): increased; effect on neurite outgrowth ([5]; bFGF added without peptide and heparin, gels washed, 48 hr): does not enhance neurite outgrowth
